# Data: article PMC6290777, “Inhalation of the prodrug PI3K inhibitor CL27c improves lung function in asthma and fibrosis” (Nature Communications, 2018)
# Legend:
# [1] = test system: human lung fibroblasts (HLF); assay: Cell survival of human lung fibroblasts (CellTiter-Glo); assay type: cell-based; conditions: TGF-β 10 ng/ml, 48 hours; CL27c 1 and 10 µM
# Description: Human lung fibroblast cell culture
# Two separate human lung fibroblast cell lines isolated from IPF patients were used: LL97a derived from a person (ATCC, Manassas, USA) and DHLF-IPF (#CC-7231, Lonza, Switzerland). Control cell lines were CCD-16Lu, obtained from a person that died of astrocytoma –a disease unrelated to IPF - (ATCC) and NHLF (#CC-2512; Lonza). LL97a and CCD-16Lu cells were cultured in Dulbecco's modified Eagles medium (DMEM, Sigma Aldrich, Dorset, UK). Media was supplemented with penicillin/streptomycin (100 U/ml, Thermo-Fischer, Germany) and 10% fetal bovine serum (FBS, Thermo-Fischer, Germany). Cells from Lonza were cultured in the FGMTM (#CC-3132, Lonza). […]
# Caliper based assay, the reaction was terminated by addition of EDTA buffer. Substrate and product were separated and quantified electrophoretically using the microfluidic-based and the assay plate was read on Caliper LabChip 3000 Drug Discovery System from Caliper Life Sciences (Walthan, MA, USA). ADP Glo was another method of detection used for some kinase assays where data was obtained by quantifying the intensity of luminescence. For ADP Glo based assay, the reaction was terminated by applying the Promega ADP Glo Kinase Assay kit and the assay plate was read on a LJL Biosystems Analyst HT. […]
# [2] = test system: Akt phosphorylation (Ser473) in murine neutrophils; assay: Akt phosphorylation in primary neutrophils stimulated with C5a; assay type: cell-based, mouse; conditions: C5a 25 nM
# Description: Neutrophils were obtained from bone marrow isolated from femurs and tibias of C57BL/6J mice. Isolated bone marrow cells were centrifuged 12 min at 260× g and resuspended in 2 ml of physiologic salt solution and neutrophils were subsequently isolated after centrifugation (30 min at 1100× g, 4 °C without brake) through 3 Percoll gradients (from bottom to top: solution B, 75% of a 90% Percoll and 10% HBSS stock solution; solution C, 64% of a 90% Percoll and 10% HBSS stock solution; solution D 52% of a 90% Percoll and 10% HBSS stock solution). Once collected at the interface between the solution B and solution C, the cells were washed three times with 10 ml of physiologic salt solution and centrifuged for 5 min at 260 × g, 4 °C and pretreated for 1 h with CL27c at different concentration. After stimulation with C5a protein were extracted with Laemnli buffer.
# For all cell types, phosphorylated Akt (P-Akt, Ser 473, 1:100, Cell Signaling Technology #4060) production was detected by western blot analysis and quantified with ChemiDoc™ XRS system. P-Akt signals are normalized on endogenous. […] To derive the EC50, all data were plotted on a dose response curve (Graph Pad software) and the EC50 was calculated by using the non-linear regression fit (equation [log agonist] vs response–variable slope). […]
# panel). […] The respective EC50 was calculated by using nonlinear
smiles,measurement,setting,value
COC(=O)c1cccc(Cn2cc(-c3cccc4c(=O)cc(N5CCOCC5)[nH]c34)nn2)c1 [CL27c],survival of HLF lines,[1],reduced survival at 1 and 10 µM
same,Akt/PKB phosphorylation,[2],readily reduced Akt/PKB phosphorylation
